Results as given in ChEMBL document CHEMBL1201862, “PubChem BioAssay data set” (2004).
Activity calls are given as the source filed them.

Legend:
[1] = target: Eukaryotic translation initiation factor 4E (Mus musculus, UniProt P63073); experiment: eIF4E–eIF4G protein interaction inhibitors, dose response, biochemical, TR-FRET (AID 855); format: functional;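 note: potency for disrupting eIF4E binding to eIF4GI seen as loss of FRET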
[2] = target: T1, Coagulation factor XII (Homo sapiens, UniProt P00748); format: functional;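 note: activated factor XIIa alpha cleaving a fluorogenic AMC peptide substrate; inhibitor potency from loss of enzyme activity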
T1 sequence (P00748 whole entry): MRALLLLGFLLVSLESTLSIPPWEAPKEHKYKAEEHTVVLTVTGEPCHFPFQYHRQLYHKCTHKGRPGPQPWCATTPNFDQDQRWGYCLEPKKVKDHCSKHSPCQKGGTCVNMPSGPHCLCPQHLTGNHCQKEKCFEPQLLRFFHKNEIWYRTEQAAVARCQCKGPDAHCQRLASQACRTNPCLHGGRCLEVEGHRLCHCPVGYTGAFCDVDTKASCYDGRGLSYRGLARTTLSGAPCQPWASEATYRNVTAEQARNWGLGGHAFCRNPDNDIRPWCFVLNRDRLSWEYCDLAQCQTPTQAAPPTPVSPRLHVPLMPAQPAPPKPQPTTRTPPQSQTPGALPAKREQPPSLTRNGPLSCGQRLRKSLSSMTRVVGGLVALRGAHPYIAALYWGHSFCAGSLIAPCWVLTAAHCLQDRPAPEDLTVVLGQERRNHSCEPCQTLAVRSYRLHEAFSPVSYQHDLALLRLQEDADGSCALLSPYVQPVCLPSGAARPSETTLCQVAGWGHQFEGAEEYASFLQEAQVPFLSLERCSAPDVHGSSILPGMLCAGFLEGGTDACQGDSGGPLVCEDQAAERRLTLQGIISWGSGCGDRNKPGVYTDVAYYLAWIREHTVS

[3] = target: T2, Calpain-2 catalytic subunit (Sus scrofa, UniProt P43367); experiment: pig calpain II inhibitor potency, dose response, biochemical, fluorogenic peptide substrate (AID 1420); format: functional
T2 sequence (P43367 whole entry): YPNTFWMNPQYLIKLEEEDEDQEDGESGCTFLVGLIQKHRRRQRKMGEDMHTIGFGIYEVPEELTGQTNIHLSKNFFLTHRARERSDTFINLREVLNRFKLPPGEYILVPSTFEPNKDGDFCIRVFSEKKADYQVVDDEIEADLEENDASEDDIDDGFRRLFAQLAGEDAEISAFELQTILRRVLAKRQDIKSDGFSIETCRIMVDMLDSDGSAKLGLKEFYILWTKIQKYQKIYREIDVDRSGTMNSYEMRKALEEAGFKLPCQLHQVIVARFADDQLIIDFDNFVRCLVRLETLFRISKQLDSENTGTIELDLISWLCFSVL

[4] = P. falciparum Dd2 growth inhibitors, dose response, SYBR Green, cherry-picked samples (AID 1159567); format: functional, cell-based
[5] = target: T3, Corticotropin-releasing factor receptor 2/Corticotropin-releasing factor-binding protein (Homo sapiens, UniProt P24387+Q13324); experiment: Dose Response confirmation of uHTS hits for small molecule antagonists of the CRF-binding protein and CRF-R2 receptor complex.; format: functional; details: read-out: IC50_Mean
T3 sequence (Q13324 whole entry): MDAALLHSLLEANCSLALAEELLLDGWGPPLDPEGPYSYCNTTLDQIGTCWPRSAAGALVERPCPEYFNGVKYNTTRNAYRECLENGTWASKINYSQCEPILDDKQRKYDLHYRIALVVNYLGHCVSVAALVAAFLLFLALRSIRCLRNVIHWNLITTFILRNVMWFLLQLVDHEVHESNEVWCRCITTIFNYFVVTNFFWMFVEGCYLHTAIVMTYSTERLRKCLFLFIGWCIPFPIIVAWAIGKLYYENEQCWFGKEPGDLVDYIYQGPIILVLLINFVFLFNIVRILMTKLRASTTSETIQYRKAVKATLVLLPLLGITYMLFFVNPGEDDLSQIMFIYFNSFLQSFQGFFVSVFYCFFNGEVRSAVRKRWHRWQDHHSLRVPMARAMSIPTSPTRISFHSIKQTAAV
T3 sequence (P24387 whole entry): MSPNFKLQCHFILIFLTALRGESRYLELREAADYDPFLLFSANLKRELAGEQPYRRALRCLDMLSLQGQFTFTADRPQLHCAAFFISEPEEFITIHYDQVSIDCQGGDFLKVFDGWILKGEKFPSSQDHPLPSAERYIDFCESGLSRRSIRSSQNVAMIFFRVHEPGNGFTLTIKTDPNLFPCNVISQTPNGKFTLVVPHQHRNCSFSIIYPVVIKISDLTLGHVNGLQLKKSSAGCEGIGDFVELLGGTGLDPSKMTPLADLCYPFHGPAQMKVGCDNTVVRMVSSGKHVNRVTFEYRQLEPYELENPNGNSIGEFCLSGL

[6] = target: Cytochrome P450 2D6 (Homo sapiens, UniProt P10635);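 note: CYP2D6 member of a cytochrome P450 panel assay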
Cytochrome P450 2D6, sequence (P10635 whole entry): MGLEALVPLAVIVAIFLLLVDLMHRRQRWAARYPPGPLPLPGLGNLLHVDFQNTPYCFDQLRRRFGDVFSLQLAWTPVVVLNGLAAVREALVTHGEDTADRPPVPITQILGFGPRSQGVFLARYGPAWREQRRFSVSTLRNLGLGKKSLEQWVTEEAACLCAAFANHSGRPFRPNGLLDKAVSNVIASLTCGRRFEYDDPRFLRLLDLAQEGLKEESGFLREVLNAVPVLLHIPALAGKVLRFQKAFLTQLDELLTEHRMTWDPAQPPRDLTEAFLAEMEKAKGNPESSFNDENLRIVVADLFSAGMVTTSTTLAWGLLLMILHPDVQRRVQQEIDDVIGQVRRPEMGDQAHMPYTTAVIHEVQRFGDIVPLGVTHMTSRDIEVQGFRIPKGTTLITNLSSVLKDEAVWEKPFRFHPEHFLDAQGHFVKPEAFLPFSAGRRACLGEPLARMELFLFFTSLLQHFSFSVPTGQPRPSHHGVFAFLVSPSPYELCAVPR

[7] = CRF-BP/CRF-R2 complex antagonists, dose response, cell-based, uHTS hits, 384-well (AID 651639); format: functional, Homo sapiens; details: read-out: IC50_Mean
[8] = target: T3, Corticotropin-releasing factor receptor 2/Corticotropin-releasing factor-binding protein; experiment: activators of CRF receptor 2 with binding protein – uHTS hits, confirmation (AID 602473); format: functional; details: read-out: EC50_Mean
[9] = target: T4, Replicative DNA helicase DnaB (Mycobacterium tuberculosis, UniProt P9WMR3); experiment: DnaB intein splicing inhibitors, dose response, biochemical, cell-free fluorescence (AID 449749); format: functional
T4 sequence (P9WMR3 whole entry): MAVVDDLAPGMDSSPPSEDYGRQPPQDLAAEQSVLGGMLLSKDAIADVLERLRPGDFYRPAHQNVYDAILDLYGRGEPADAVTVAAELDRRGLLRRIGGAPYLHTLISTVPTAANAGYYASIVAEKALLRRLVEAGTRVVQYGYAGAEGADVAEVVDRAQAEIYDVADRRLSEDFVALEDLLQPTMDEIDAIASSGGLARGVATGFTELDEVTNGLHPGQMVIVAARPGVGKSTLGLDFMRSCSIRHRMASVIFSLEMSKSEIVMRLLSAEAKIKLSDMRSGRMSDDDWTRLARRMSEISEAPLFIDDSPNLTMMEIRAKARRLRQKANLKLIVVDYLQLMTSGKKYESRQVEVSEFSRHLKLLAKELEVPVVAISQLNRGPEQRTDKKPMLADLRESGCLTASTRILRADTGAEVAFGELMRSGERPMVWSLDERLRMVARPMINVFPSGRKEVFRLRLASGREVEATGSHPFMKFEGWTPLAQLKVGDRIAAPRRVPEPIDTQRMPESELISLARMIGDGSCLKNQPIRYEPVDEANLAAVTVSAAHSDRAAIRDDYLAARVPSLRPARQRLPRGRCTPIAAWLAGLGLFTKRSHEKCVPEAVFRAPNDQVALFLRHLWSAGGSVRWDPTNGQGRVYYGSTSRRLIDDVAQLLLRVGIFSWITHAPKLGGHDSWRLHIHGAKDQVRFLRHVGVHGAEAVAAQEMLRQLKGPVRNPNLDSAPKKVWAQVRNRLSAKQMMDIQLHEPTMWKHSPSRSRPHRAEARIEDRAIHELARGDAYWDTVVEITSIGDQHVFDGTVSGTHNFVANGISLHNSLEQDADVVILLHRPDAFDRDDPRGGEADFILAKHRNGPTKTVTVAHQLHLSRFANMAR

[10] = target: T5, Protein RecA (Mycobacterium tuberculosis, UniProt P9WHJ3); experiment: Fluorescence Cell-Free Homogeneous Dose Retest to Identify Inhibitors of RecA-Intein Splicing Activity. [Related pubchem assays (depositor defined):AID2097, AID2223, AID489010, AID492950]; format: functional
T5 sequence (P9WHJ3 whole entry): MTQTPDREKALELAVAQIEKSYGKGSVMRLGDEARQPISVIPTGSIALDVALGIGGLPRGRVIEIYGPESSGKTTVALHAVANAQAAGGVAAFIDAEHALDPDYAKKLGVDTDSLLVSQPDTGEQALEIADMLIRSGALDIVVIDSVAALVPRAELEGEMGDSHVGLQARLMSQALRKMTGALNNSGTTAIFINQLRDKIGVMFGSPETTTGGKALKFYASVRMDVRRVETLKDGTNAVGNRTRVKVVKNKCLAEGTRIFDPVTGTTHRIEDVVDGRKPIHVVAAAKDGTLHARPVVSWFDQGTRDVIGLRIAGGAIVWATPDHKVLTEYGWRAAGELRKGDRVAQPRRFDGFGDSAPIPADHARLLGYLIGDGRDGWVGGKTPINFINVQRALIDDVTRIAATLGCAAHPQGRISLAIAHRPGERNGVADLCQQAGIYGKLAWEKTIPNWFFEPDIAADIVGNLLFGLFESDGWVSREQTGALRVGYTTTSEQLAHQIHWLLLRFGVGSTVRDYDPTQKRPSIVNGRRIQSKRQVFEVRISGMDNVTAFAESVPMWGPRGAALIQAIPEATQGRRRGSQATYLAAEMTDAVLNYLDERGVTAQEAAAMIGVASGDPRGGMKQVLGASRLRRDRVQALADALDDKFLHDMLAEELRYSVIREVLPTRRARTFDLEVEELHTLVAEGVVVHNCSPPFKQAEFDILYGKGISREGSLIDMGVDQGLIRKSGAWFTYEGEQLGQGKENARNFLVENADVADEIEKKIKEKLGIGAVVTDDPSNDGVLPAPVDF

[11] = target: Cytochrome P450 2C9 (Homo sapiens, UniProt P11712)
Cytochrome P450 2C9, sequence (P11712 whole entry): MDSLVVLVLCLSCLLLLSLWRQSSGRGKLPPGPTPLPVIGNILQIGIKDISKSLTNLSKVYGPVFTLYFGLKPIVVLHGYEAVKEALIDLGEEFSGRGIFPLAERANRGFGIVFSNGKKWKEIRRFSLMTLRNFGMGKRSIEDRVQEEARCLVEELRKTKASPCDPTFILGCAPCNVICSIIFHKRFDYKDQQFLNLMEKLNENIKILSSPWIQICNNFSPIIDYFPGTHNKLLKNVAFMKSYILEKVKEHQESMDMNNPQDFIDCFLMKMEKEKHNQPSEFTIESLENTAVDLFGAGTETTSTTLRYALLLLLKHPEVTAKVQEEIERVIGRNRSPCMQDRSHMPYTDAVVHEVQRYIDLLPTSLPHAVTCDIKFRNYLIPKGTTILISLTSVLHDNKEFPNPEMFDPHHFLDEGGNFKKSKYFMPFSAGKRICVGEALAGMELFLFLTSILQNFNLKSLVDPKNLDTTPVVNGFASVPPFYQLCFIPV

[12] = target: T6, Rac GTPase-activating protein 1 (Homo sapiens, UniProt Q9H0H5); experiment: MgcRacGAP GTPase-activating activity inhibitors, confirmation, biochemical, ADP Hunter fluorescence, primary and confirmatory (AID 624330); format: functional
T6 sequence (Q9H0H5 whole entry): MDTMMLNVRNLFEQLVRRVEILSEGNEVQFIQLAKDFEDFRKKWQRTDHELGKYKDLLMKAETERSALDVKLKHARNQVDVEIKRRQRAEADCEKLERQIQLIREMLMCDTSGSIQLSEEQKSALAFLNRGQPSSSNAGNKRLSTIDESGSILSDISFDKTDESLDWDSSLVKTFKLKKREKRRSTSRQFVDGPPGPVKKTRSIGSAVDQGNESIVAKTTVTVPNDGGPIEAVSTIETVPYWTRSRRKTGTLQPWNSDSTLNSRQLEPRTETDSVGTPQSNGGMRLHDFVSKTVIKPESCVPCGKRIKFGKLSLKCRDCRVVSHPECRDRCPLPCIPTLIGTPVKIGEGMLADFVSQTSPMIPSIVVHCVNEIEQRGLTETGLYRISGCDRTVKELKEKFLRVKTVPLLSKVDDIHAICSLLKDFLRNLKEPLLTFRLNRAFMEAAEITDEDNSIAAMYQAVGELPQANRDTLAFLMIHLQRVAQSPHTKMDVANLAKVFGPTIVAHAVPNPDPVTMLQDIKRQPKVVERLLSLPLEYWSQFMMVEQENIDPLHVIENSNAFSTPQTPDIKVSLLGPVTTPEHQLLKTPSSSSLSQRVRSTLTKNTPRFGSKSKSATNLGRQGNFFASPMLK

[13] = HEp-2 cell cytotoxicity, dose response, cytotoxicity control for RSV inhibitor project, HTS (AID 2410); format: functional; details: human respiratory syncytial virus
[14] = target: T7, Heat shock factor protein 1 (Mus musculus, UniProt P38532); experiment: inhibition of MG132-induced HSE-luciferase signal, confirmation, cell-based, NIH3T3, luminescence, dose retest (AID 2382); format: functional;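 note: NIH3T3 fibroblasts with HSF1-driven luciferase reporter stressed by proteasome inhibitor MG132; luminescence from HSF1-driven luciferase expression after 8 hours of MG132 stress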
T7 sequence (P38532 whole entry): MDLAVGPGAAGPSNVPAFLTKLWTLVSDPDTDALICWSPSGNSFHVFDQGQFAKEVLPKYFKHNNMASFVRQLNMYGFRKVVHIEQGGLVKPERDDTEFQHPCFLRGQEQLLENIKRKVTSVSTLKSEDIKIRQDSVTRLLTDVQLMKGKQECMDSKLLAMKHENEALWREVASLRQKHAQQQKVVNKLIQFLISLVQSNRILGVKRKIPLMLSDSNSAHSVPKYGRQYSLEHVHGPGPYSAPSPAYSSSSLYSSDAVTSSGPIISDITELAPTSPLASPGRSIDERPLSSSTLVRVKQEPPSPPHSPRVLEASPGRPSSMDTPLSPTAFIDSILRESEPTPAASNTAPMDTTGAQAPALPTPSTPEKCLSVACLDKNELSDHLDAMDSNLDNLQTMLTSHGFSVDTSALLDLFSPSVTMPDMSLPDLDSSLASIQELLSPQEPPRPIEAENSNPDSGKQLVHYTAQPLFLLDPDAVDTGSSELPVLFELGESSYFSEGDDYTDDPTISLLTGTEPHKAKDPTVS

[15] = test system: INS1; experiment: beta cell apoptosis inhibitors, cytokine rescue, dose response, luminescence, retest (AID 449756); format: functional, cell-based; details: Rattus norvegicus;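 note: cell death triggered by IL-1 beta plus TNF-alpha plus IFN-gamma mixture; protective hits raise ATP signal compared with cytokine alone wells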

Eukaryotic translation initiation factor 4E, sequence (P63073 whole entry): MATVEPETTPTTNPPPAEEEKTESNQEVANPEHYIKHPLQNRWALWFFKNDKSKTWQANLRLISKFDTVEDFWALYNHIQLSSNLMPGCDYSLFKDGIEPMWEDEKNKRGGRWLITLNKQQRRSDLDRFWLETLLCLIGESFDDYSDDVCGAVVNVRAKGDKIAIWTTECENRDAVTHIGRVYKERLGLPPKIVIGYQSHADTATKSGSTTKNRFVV

## Cc1cc(C)cc(NC(=O)c2ccccc2CC[N+](=O)[O-])c1
[1]
  IC50: > 64 µM (inactive)

## C=CCSc1nc(C)c(CC=C)c(O)n1
[2]
  IC50: > 50 µM (inactive)

## Cc1c(=O)n(OCc2ccccc2F)c2ccccc2[n+]1[O-]
[3]
  IC50: 25.6 µM (not active)

## CCOC(=O)Cn1c(=O)oc2cc(S(=O)(=O)NCc3cccs3)ccc21
[1]
  IC50: > 64 µM (inactive)

## C/C(=N\NC(=O)CCn1nnc2ccccc21)c1cccs1
[2]
  IC50: > 50 µM (inactive)

## COc1cccc(-c2cn(CC[C@@H]3CC[C@@H](NS(=O)(=O)c4ccccc4Cl)[C@H](CO)O3)nn2)c1
[4]
  AC50: 5.86 µM (active)

## Cc1ccc(S(=O)(=O)N(Cc2ccccc2)c2ccccc2C(=O)NCc2ccco2)cc1
[5]
  IC50: < 0.368 µM (active)
[6]
  AC50: 15.8 µM (inconclusive)
[7]
  IC50: 6.81 µM (active)
[2]
  IC50: > 50 µM (inactive)
[8]
  EC50: > 53 µM (inactive)

## CCOc1ccccc1Nc1nnc(Cc2ccccc2Cl)c(O)n1
[3]
  IC50: > 50 µM (not active)
[9]
  AC50: > 380 µM (inactive)
[10]
  EC50: 21 µM (active)

## CCCCc1nc(O)c(C#N)c2c1CCCC2
[6]
  AC50: 35.5 µM (inconclusive)
[2]
  IC50: > 50 µM (inactive)
[11]
  AC50: 0.251 µM (inconclusive)

## CCN(CC)S(=O)(=O)c1ccc2oc(C(=O)NCc3ccc(C)cc3)c(C)c2c1
[3]
  IC50: 26.3 µM (not active)

## CCOC(=O)c1c(N)sc2c(O)c(Br)ccc12
[12]
  IC50: 58.6 µM (active)
[1]
  IC50: > 64 µM (inactive)
[13]
  CC50: 47 µM (active)
[14]
  EC50: > 195 µM (not active)

## Cc1ccc(-c2nn(-c3ccccc3)cc2/C=N/NS(=O)(=O)c2ccccc2)cc1
[2]
  IC50: > 50 µM (inactive)

## CSc1nsc(SCC(=O)N2CCc3ccccc32)n1
[1]
  IC50: > 64 µM (inactive)

## COc1cccc(Cn2c(NCc3ccco3)nc3c2c(=O)n(C)c(=O)n3C)c1
[2]
  IC50: > 50 µM (inactive)
[15]
  AC50: 3.85 µM (active)

## COC(=O)CC(NS(=O)(=O)c1cccs1)c1cccc2ccccc12 (configuration not stated)
[3]
  IC50: > 50 µM (not active)
